Data set [1] concerns the target T1, caspase 8 (Homo sapiens, UniProt Q14790).
T1 construct: endogenous in cells; host or cells: Jurkat-rtTA cells
Description: Cell-based assay for caspase 8 in Jurkat cells (GFP double mutant, anti-Fas Ab, guanidine-HCl). The text has this:
Two factors are particularly important for the successful conversion of GFP into a preferred protease substrate: (i) the cleavage of the accessible substrate recognition sequence and (ii) the susceptibility of the cleaved GFP relative to the intact (non-cleaved) GFP towards unfolding. In the present work, it was preferred to introduce two cleavage sites in order to sufficiently destabilize GFP so that rapid unfolding could be observed at pH 5.5 in vitro. This is represented by a Scheme in FIG. 6. FIG. 6 is a graphical depiction of fluorescence as a function of the duration of exposure to guanidine-HCl. The assay was performed in Jurkat cells, using an anti-Fas Ab for caspase 8 activation. The assay is run in a 96-well plate format, using the Cytofluor plate reader. […] Without addition of Guanidine-HCl, no change in fluorescence was observed. However, a functional cellular assay (i.e. with a fluorescence readout) was obtained by incubating the cells with the denaturing agent Guanidine-HCl prior to analysis.
Without addition of Guanidine-HCl, no change in fluorescence is observed. However, a functional cellular assay (i.e. with a fluorescence readout) was obtained by incubating the cells with the denaturing agent Guanidine-HCl prior to analysis (FIG. 6).
The assay was performed in Jurkat cells and the GFP substrate was delivered by means of transient transfection. […]

For data set [2], the target named is T2, cathepsin L (Homo sapiens, UniProt P07711).
T2 construct: The C-terminus of the full length human preprocathepsin L is fused in frame to the N-terminus of GFP; GFP (Aequorea victoria, F64L/S65C/I167T/K238N) via BglII-NheI linker (C); expressed in transfected cells
T2 sequence (P07711 18-333 limits assumed): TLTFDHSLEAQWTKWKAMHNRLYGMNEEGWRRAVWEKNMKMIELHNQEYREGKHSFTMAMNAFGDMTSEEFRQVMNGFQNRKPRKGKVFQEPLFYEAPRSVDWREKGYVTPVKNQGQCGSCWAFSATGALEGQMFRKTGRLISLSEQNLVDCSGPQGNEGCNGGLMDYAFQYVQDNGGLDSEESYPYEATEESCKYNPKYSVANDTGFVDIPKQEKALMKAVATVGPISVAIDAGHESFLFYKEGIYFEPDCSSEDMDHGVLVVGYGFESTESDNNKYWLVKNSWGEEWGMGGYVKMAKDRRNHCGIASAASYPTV
Description: Intracellular cathepsin L assay, wild type preprocathepsin L-GFP in HeLa-rtTA cells, 96-well plate reader. The settings on record: 48 h; for Effect on overall level of GFP fluorescence: 0-60 μM. Type of data set: cell-based. As for the experimental part:
(§1) Adaptation of the assay to a 96-well plate format—The intracellular assay was performed in a 96-well microplate format using a plate reader to monitor GFP fluorescence. Three different inhibitors were used for the plate assay: Cbz-LeuLeuTyr-CHN2, Cbz-LeuLeuTyr-CH2F and E-64. These compounds are all irreversible inhibitors of cysteine proteases. Prior to measuring the fluorescence, the stably transfected pools of HeLa-rtTA cells were induced with doxycycline and cultured in presence of various concentrations of the inhibitors for 48 h.
(§2) FIG. 15 Adaptation of the intracellular assay to a high-throughput screening format. The assay was carried out in a 96-well microplate and fluorescence was measured using the Cytofluor. The expression of GFP fusion proteins was induced for 48 h in the presence of several inhibitors. Cell viability was determined using the MTT dye reduction assay. The average of triplicate values and the standard deviation for fluorescence and cell viability were expressed as a function of inhibitor concentration. Panel A. Relative fluorescence (fold/control) of cells expressing the wild-type preprocathepsin L-GFP fusion protein treated with various inhibitors. Panel B. The relative fluorescence of cells expressing the mutant preprocathepsin L-GFP (C25A) fusion protein in response to treatment with several inhibitors. Panel C. Percentage of viable cells expressing the wild type fusion protein after treatment with inhibitors. […]
Proteolytic Assays—For in vitro assays, purified GFP-His protein (100 μg) was incubated with 400 nM cathepsin L for 4.5 h. Aliquots were analyzed periodically to monitor the fluorescence using a CytoFluor plate reader (PerSeptive Biosystems, Framingham, Mass.) with cut-off filters of 488 nm (excitation) and […] (emission). […] For cell-based assays, stably transfected HeLa cells (stable pools) of either wild type cathepsin L-GFP or mutant cathepsin L-GFP fusions were grown in presence or absence of cathepsin inhibitors, and GFP fluorescence was monitored with various detection methods. […] Cells from one set of plates were harvested by trypsinization, resuspended in PBS, and GFP fluorescence was subsequently determined with flow cytometry. […] The cells were grown for an additional 24 h and GFP fluorescence was measured as described above. For detection with the CytoFluor plate reader, cells (400,000 cells/ml) in a total volume of 250 μl per well, were cultured in 96-well microplates. […] After the removal of medium, 200 μl of PBS was added to each well and the plates were scanned to monitor GFP fluorescence. Background fluorescence was determined from negative control cells (-doxycycline), and was subtracted from the fluorescence values obtained from induced cells that were cultured with various concentrations of inhibitors.

Data set [3] concerns HeLa-rtTA cells. Description: Cell viability, MTT dye reduction assay. The data set is classed as cell-based. The settings on record: 48 h; for Effect on cell viability: 0-60 μM, wild type and mutant fusion cells; for Cell viability: 60 μM. As to the method:
FIG. 15 Adaptation of the intracellular assay to a high-throughput screening format. The assay was carried out in a 96-well microplate and fluorescence was measured using the Cytofluor. The expression of GFP fusion proteins was induced for 48 h in the presence of several inhibitors. Cell viability was determined using the MTT dye reduction assay. The average of triplicate values and the standard deviation for fluorescence and cell viability were expressed as a function of inhibitor concentration. Panel A. Relative fluorescence (fold/control) of cells expressing the wild-type preprocathepsin L-GFP fusion protein treated with various inhibitors. Panel B. The relative fluorescence of cells expressing the mutant preprocathepsin L-GFP (C25A) fusion protein in response to treatment with several inhibitors. Panel C. Percentage of viable cells expressing the wild type fusion protein after treatment with inhibitors. Panel D. The percentage of viable cells expressing the mutant fusion protein as described in Panel C.
Cell Viability Assay—The number of viable cells was evaluated by the MTT dye reduction assay with modification (24). In the presence of various concentrations of inhibitors, cells were grown in 96-well plates for 48 h. MTT reagent was then added to a final concentration of 0.5 mg/ml, and incubation at 37° C. in 5% CO2 was continued for 4 h. The resulting insoluble formazan crystals were solubilized by resuspending the cells in 100 μl of DMSO per well. Absorbance of converted dye was measured at 550/690 nm on SpectraMAX 250 (Molecular Devices). Assay values obtained from control cells were taken as 100%.

Data set [4] deals with T3, non-active preprocathepsin L (C25A) mutant (Homo sapiens, UniProt P07711, C138A).
T3 construct: The C-terminus of the full length human preprocathepsin L is fused in frame to the N-terminus of GFP; GFP (Aequorea victoria, F64L/S65C/I167T/K238N) via BglII-NheI linker (C); expressed in transfected cells
T3 sequence (P07711 114-333 C138A): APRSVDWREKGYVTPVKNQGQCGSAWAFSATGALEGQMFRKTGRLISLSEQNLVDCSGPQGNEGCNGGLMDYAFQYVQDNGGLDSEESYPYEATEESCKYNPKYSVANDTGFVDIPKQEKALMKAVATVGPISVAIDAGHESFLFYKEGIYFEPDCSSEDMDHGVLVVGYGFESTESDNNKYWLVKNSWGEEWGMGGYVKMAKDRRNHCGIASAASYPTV
Description: Control, mutant preprocathepsin L-GFP (C25A) in HeLa-rtTA cells, 96-well plate reader. The data set is classed as cell-based. The settings on record: 0-60 μM, 48 h. As to the method: as §1
as §2, with “C.” for “C. Percentage of viable cells expressing the wild type fusion protein after treatment with inhibitors.”

In data set [5] the target is T3, non-active preprocathepsin L (C25A) mutant. Briefly: Control, mutant preprocathepsin L-GFP (C25A) in HeLa-rtTA cells, FACS. The data set is classed as cell-based. The conditions noted are these: inactive cathepsin L (C25A), up to 35 μM inhibitor, 48 h. As for the experimental part: (§3) A potent cathepsin L irreversible inhibitor, Cbz-LeuLeuTyr-CHN2, was also used in this experiment. To induce cathepsin L-GFP expression, the cells were cultured in the presence of doxycycline for 48 h. […] Fluorescence that corresponds to GFP, however, is found in the peaks at higher fluorescence levels (FIGS. 13B,C). This can be observed in all cell populations expressing GFP. […] In the absence of inhibitor, the active enzyme hydrolyzes most of the GFP substrate, resulting in low fluorescence levels. […] It must be noted also that the low level of cellular fluorescence increases slightly in presence of the inhibitor, possibly due to effects on cellular events.
(§4) FIG. 13 Characterization of GFP fluorescence by FACS analysis. Expression of GFP fusion proteins was induced in the presence or absence of Z-Leu-Leu-Tyr-CHN2 inhibitor for 48 h, and the fluorescence was measured by FACS . Panel A. The fluorescence histograms of non-30 transfected HeLa-rtTA cells, cultured in absence (shaded) or in presence of 35 μM inhibitor (superimposed). A shift of the superimposed histogram depicts an increase of the background fluorescence in response to the inhibitor (see text for more details). Panel B. The fluorescence histograms of cells expressing the mutant preprocathepsin L-GFP (C25A) fusion protein, grown in absence (shaded) and in presence (superimposed) of 35 μM inhibitor. Panel C. […]

Data set [6] deals with T2, cathepsin L. Description: Intracellular cathepsin L assay, wild type preprocathepsin L-GFP in HeLa-rtTA cells, FACS. The conditions noted are these: 48 h. The data set is classed as cell-based. As to the method:
as §3, §4

SMILES strings stand for the structures. Entries after “also recorded” stand apart in the source; their conditions may differ. Residues, ends and D or L forms follow the SMILES beside them. *: point of attachment. Cbz = O=C(OCc1ccccc1)*; CHN2 = [N-]=[N+]=C*; CH2F = FC*

T1 sequence (Q14790 217-374 limits assumed): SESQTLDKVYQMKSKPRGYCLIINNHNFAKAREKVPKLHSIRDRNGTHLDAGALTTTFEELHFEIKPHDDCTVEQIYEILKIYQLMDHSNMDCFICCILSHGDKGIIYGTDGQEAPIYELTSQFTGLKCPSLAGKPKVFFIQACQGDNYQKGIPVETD
T1 sequence (Q14790 385-479 limits assumed): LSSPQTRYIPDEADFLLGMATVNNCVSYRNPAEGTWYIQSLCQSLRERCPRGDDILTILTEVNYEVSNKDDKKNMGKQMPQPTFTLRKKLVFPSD

For `COC(=O)C[C@H](NC(=O)[C@H](C)NC(=O)[C@@H](NC(=O)OCc1ccccc1)C(C)C)C(=O)CF` [Z-VAD-FMK] (Cbz-Val-Ala-Asp(OMe)-CH2F), the “Response of fluorescence with inhibitor concentration” value in data set [1] (Fas-dependent hydrolysis of GFP, guanidine-HCl before reading) is “dose-dependent response”. Besides, in data set [1] (Jurkat-rtTA cells, Western with polyclonal anti-GFP Ab), the “Hydrolysis of GFP mutant in response to Fas-induced apoptosis” value is reported as “inhibited”.
In the case of `CC(C)C[C@H](NC(=O)[C@H]1O[C@@H]1C(=O)O)C(=O)NCCCCN=C(N)N` (relative stereo) [E-64, N-[N-(L-3-trans-carboxyoxirane-2-carbonyl)-L-leucyl]amino-4-guanidinobutane], the “Effect on overall level of GFP fluorescence” value (from here on “Effect on overall level”) in data set [2] is given as “no significant effect”. In data set [3], the “Effect on cell viability” value was “Almost no effect”.
With `CC(C)C[C@H](NC(=O)OCc1ccccc1)C(=O)N[C@@H](CC(C)C)C(=O)N[C@@H](Cc1ccc(O)cc1)C(=O)C=[N+]=[N-]` [Cbz-LeuLeuTyr-CHN2] (Cbz-Leu-Leu-Tyr-CHN2), the “Effect on overall level” value in data set [2] is on record as “dose-dependent increase”. Further, in data set [2] (60 μM), the “Fluorescence increase relative to control cells without inhibitor” value was 20 fold. Further, in data set [4], the “Fluorescence of cells expressing mutant non-active fusion protein” value was “small increase”. Besides, the GFP fluorescence entry in data set [5] is on record as “virtually no change; also recorded: remained unchanged”; in data set [6] (35 μM inhibitor, doxycycline), “significant increase”. Further, in data set [3], the “Effect on cell viability” value was “inversely proportional to the inhibitor concentration”. The Cell viability entry in data set [3] is reported as “approximately 50%”. Further, the “Increase of fluorescence (fluorescence index)” value in data set [6] (inhibitor concentration increased from 0 to 35 μM) is reported as “up to 5 fold”.
For the compound `CC(C)C[C@H](NC(=O)OCc1ccccc1)C(=O)N[C@@H](CC(C)C)C(=O)N[C@@H](Cc1ccc(O)cc1)C(=O)CF` [Cbz-LeuLeuTyr-CH2F] (Cbz-Leu-Leu-Tyr-CH2F), the “Effect on overall level” value in data set [2] is given as “no significant effect”. Also, in data set [3], the “Effect on cell viability” value is on record as “inversely proportional to the inhibitor concentration” and the Cell viability result is given as “approximately 50%”.
